Patent EP2271935B1, “METHOD AND KIT FOR THE EX VIVO EVALUATION OF THE RESPONSE OF A TUMOR TO CONDITIONS TO BE TESTED” (Universität Leipzig, priority 2008, dated 2009)

Test system: colonies of epithelial cells of head and neck squamous carcinoma
Test: ex vivo colony formation assay of collagenase-digested tumor samples, epithelial colonies counted after cytokeratin staining
Assay type: cell-based, human
Conditions: for Range from / Range to: concentrations with log-linear relation to response; for Range from / Range to / Cut-off concentrations Sample 1 / Cut-off concentrations Sample 2 / Cut-off concentrations Sample 3 / IC50 Sample 1 / IC50 Sample 2 / IC50 Sample 3: docetaxel (TPL = 0.55 µmol/l), 72 h
Experimental: Thereafter the tumors which usually have a size of about 0.1 to 1 ml were mechanically disintegrated by mincing to tissue pats of about 0.1 to 10 mm^3 and immersed each in 30 ml of pre-warmed riboflavin-free RPMI 1640 medium without phenol red and containing 14.5 mmol/l HEPES, 13.5 mmol/l NaHCO3, stabilized glutamine, 10% (v/v) fetal calf serum, the antibiotics penicillin, streptomycin and amikacin, as well as the antimycotic nystatin. The tumor cells were always handled at room temperature or warmer and never exposed to light other than the light of a sodium discharge lamp with an emission wavelength of 589 nm. Immediately after mechanical disintegration 120 U/ml collagenase type IV of Clostridium histolyticum (EC 3.4.24.3, type IV) were added and the mixture incubated for 16 h at 36.5°C in brown glass bottles in an incubator. To ensure optimal incubation conditions, the CO2 concentration therein was constantly kept at 3.5% and relative humidity at 95%. Following enzymatic disintegration by collagenase the digest was centrifuged for 10 min at 1200 rpm, the resulting pellets were carefully re-suspended in fresh culture medium supplemented as described but without collagenase. […] Ex-vivo testing was performed 72 h using the same culture conditions as during the collagenase digest.
After 72 hours of incubation, the wells were rinsed twice with phosphate buffered saline, pH 7.8, and the adherent cells and cell colonies were fixed with ice-cold 90% methanol for 10 min. Fixed specimens were exposed for 5 min to PBS/ 0.1% Tween-20® (Polysorbate 20) before preincubation with 1% serum in PBS/ 0.1% Tween-20 for 45 min, followed by overnight incubation at 4°C with the primary antibody (anti-cytokeratin; SantaCruz sc-8018, C11) diluted 1:400 in PBS/ 0.1% Tween-20 supplemented with 0.2 % serum. After three rinses for 10 min each with PBS/ 0.2 % Serum/ 0.1% Tween-20, specimens were incubated for another 2 h at room temperature in the dark with the secondary antibody (anti-mouse IgG coupled with Cy2 or Cy3 fluorescence dye, Jackson ImmunoResearch, Cambs, UK) in a 1:400 dilution in PBS/ 0.2 % Serum/ 0.1 % Tween-20 followed by three rinses with PBS/ 0.2 % Serum/ 0.1 % Tween-20, and a final rinse with distilled water for 2 min. The test plate was air dried, and fluorescence signals were imaged with the Zeiss Axiovert 200M inverted fluorescence microscope (Zeiss, Jena, Germany) using Zeiss filter sets 44 and 43HE for Cy2 and Cy3, respectively. The evaluation of the colonies is possible using every given fluorescence microscope but is eased by the use of dedicated filter sets. […] The test is utilized by separately counting of colonies of different types (stained epithelial, unstained stromal cells), the numbers of colonies in the different treatments (e.g. doses of radiation or concentrations of chemotherapeutics) are recorded and kept for further analysis.
Freshly resected probes of head and neck squamous carcinoma of 14 untreated patients were investigated and treated if not stated otherwise as described in example 1. Three fragments were each excised from different tumor areas, weighed, and treated with collagenase as outlined in Example 1.
1.5 mg of tumor was applied to a well.
Freshly resected probes of head and neck squamous carcinoma of 14 untreated patients were investigated and treated if not stated otherwise as described in example 1. Three fragments were each excised from different tumor areas, weighed, and treated with collagenase as outlined in Example 1. Collagenase digests were exposed to concentrations in the range from 0.5- to 32-fold the tolerated plasma levels (TPL) of docetaxel: (TPL = 0.55 µmol/l).

## CC(=O)O[C@@]12CO[C@@H]1C[C@H](O)[C@@]1(C)C(=O)[C@H](O)C3=C(C)[C@@H](OC(=O)[C@H](O)[C@@H](NC(=O)OC(C)(C)C)c4ccccc4)C[C@@](O)([C@@H](OC(=O)c4ccccc4)[C@H]21)C3(C)C [docetaxel]
Tumor-No. 1
  Range from: 2.0 n-fold TPL
  Range to: 8.0 n-fold TPL
  Cut-off concentrations Sample 1: 8 n-fold TPL
  Cut-off concentrations Sample 2: 8 n-fold TPL
  Cut-off concentrations Sample 3: 8 n-fold TPL
  IC50 Sample 1: 4.565 n-fold TPL
  IC50 Sample 2: 4.718 n-fold TPL
  IC50 Sample 3: 5.040 n-fold TPL
Tumor-No. 2
  Range from: 0.5 n-fold TPL
  Range to: 32.0 n-fold TPL
  Cut-off concentrations Sample 1: X (not more than 5 colonies at most have appeared at the highest dose rate)
  Cut-off concentrations Sample 2: X (not more than 5 colonies at most have appeared at the highest dose rate)
  Cut-off concentrations Sample 3: X (not more than 5 colonies at most have appeared at the highest dose rate)
  IC50 Sample 1: 1.486 n-fold TPL
  IC50 Sample 2: 0.579 n-fold TPL
  IC50 Sample 3: 1.157 n-fold TPL
Tumor-No. 3
  Range from: 2.0 n-fold TPL
  Range to: 32.0 n-fold TPL
  Cut-off concentrations Sample 1: X (not more than 5 colonies at most have appeared at the highest dose rate)
  Cut-off concentrations Sample 2: X (not more than 5 colonies at most have appeared at the highest dose rate)
  Cut-off concentrations Sample 3: X (not more than 5 colonies at most have appeared at the highest dose rate)
  IC50 Sample 1: 16.404 n-fold TPL
  IC50 Sample 2: 10.711 n-fold TPL
  IC50 Sample 3: 19.173 n-fold TPL
Tumor-No. 4
  Range from: 4.0 n-fold TPL
  Range to: 32.0 n-fold TPL
  Cut-off concentrations Sample 1: XX (more than 5 colonies have appeared at the highest dose rate)
  Cut-off concentrations Sample 2: X (not more than 5 colonies at most have appeared at the highest dose rate)
  Cut-off concentrations Sample 3: XX (more than 5 colonies have appeared at the highest dose rate)
  IC50 Sample 1: 27.819 n-fold TPL
  IC50 Sample 3: 23.393 n-fold TPL
Tumor-No. 5
  Range from: 0.5 n-fold TPL
  Range to: 32.0 n-fold TPL
  Cut-off concentrations Sample 1: X (not more than 5 colonies at most have appeared at the highest dose rate)
  Cut-off concentrations Sample 2: XX (more than 5 colonies have appeared at the highest dose rate)
  Cut-off concentrations Sample 3: X (not more than 5 colonies at most have appeared at the highest dose rate)
  IC50 Sample 1: 3.891 n-fold TPL
  IC50 Sample 3: 9.987 n-fold TPL
Tumor-No. 6
  Range from: 2.0 n-fold TPL
  Range to: 32.0 n-fold TPL
  Cut-off concentrations Sample 1: X (not more than 5 colonies at most have appeared at the highest dose rate)
  Cut-off concentrations Sample 2: X (not more than 5 colonies at most have appeared at the highest dose rate)
  Cut-off concentrations Sample 3: X (not more than 5 colonies at most have appeared at the highest dose rate)
  IC50 Sample 1: 8.208 n-fold TPL
  IC50 Sample 2: 6.690 n-fold TPL
  IC50 Sample 3: 8.404 n-fold TPL
Tumor-No. 7
  Range from: 2.0 n-fold TPL
  Range to: 32.0 n-fold TPL
  Cut-off concentrations Sample 1: 32 n-fold TPL
  Cut-off concentrations Sample 2: 32 n-fold TPL
  Cut-off concentrations Sample 3: 32 n-fold TPL
  IC50 Sample 1: 3.616 n-fold TPL
  IC50 Sample 2: 3.629 n-fold TPL
  IC50 Sample 3: 2.692 n-fold TPL
Tumor-No. 8
  Range from: 1.0 n-fold TPL
  Range to: 32.0 n-fold TPL
  Cut-off concentrations Sample 1: 32 n-fold TPL
  Cut-off concentrations Sample 2: 32 n-fold TPL
  Cut-off concentrations Sample 3: X (not more than 5 colonies at most have appeared at the highest dose rate)
  IC50 Sample 1: 6.709 n-fold TPL
  IC50 Sample 3: 5.282 n-fold TPL
Tumor-No. 9
  Range from: 0.5 n-fold TPL
  Range to: 32.0 n-fold TPL
  Cut-off concentrations Sample 1: X (not more than 5 colonies at most have appeared at the highest dose rate)
  Cut-off concentrations Sample 2: X (not more than 5 colonies at most have appeared at the highest dose rate)
  Cut-off concentrations Sample 3: X (not more than 5 colonies at most have appeared at the highest dose rate)
  IC50 Sample 1: 6.964 n-fold TPL
  IC50 Sample 2: 7.495 n-fold TPL
Concentrations ≤ TPL, seven tumors (No. 2, 3, 4, 5, 6, 8 and 9)
  effect on number of epithelial colonies at low concentrations: hormesis
